# Target: T1, human metabotropic glutamate receptor 5 (hmGluR5) (Homo sapiens, UniProt P41594)
# T1 construct: expressed in transfected cells
# Test: Calcium mobilization (FLIPR) assay for negative allosteric modulation, EC80 glutamate, hmGluR5 in HEK 293
# Format: cell-based
# Conditions: HEK293; hmGluR5, inhibition of EC80 glutamate response; read-out: FLIPR maximum inhibition
# Summary of the method: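 Stably transfected HEK 293 cells, Fluo-4-loaded, stimulated with EC80 glutamate plus test compound in HBSS/20 mM HEPES pH 7.4 with probenecid; FLIPR fluorescence read over 3 min at room temperature. Basal-subtracted maximum fluorescence change fitted by Hill equation; negative modulation seen as concentration-dependent inhibition of the EC80 response.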
# T1 sequence (P41594 21-1212): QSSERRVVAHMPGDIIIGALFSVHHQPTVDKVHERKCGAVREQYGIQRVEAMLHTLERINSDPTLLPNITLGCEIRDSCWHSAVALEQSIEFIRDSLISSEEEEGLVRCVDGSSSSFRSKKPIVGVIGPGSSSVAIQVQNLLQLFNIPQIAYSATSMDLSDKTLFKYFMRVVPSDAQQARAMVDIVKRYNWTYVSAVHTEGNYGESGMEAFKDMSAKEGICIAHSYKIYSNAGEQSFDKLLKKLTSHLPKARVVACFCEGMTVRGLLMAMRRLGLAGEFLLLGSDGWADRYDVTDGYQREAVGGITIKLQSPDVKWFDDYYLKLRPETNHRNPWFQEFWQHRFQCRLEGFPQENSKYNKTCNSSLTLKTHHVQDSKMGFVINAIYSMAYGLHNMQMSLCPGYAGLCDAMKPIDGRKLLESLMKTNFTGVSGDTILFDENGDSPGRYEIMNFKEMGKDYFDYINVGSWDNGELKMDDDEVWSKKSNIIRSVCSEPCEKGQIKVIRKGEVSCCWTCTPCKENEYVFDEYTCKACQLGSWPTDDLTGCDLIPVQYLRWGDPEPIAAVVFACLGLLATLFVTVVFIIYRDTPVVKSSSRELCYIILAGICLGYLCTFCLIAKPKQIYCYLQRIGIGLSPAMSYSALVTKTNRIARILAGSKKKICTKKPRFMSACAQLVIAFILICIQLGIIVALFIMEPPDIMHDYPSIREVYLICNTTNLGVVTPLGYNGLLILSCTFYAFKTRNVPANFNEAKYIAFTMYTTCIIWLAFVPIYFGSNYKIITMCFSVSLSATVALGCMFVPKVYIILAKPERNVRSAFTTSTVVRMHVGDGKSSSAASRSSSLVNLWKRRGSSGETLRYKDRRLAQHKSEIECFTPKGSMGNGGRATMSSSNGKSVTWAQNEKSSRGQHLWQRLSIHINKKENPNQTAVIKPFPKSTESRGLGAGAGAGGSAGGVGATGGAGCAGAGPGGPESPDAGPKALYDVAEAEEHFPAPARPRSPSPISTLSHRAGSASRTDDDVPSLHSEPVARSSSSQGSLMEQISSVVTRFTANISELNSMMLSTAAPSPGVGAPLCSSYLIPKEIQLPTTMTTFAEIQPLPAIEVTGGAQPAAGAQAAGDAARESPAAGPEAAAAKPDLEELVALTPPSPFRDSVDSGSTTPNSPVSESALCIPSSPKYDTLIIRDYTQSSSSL
row,SMILES,Emax [%]
1,"Cc1cc(N2CC[C@]3(CCC[C@H](NC(=O)c4cccc(F)c4)C3)C2=O)nc(C)n1 (relative stereo) [Example 151, cis-N-[2-(2,6-Dimethyl-pyrimidin-4-yl)-1-oxo-2-aza-spiro[4.5]dec-7-yl]-3-fluoro-benzamide]",47 to 93
2,Cc1cccc(C(=O)N[C@H]2CCC[C@]3(CCN(C)C3=O)C2)n1 (relative stereo) [Example 153],47 to 93
3,CCN1CC[C@]2(CCC[C@H](NC(=O)c3cccc(C)n3)C2)C1=O (relative stereo) [Example 154],47 to 93
4,CCCN1CC[C@]2(CCC[C@H](NC(=O)c3cccc(C)n3)C2)C1=O (relative stereo) [Example 155],47 to 93
5,"Cc1cccc(C(=O)N[C@@H]2CCC[C@@]3(CCN(c4cc(F)cc(F)c4)C3=O)C2)n1 (single isomer, unassigned) [Example 67]",73 to 95
6,"Cc1cccc(C(=O)N[C@H]2CCC[C@]3(CCN(c4cc(F)cc(F)c4)C3=O)C2)n1 (single isomer, unassigned) [Example 81]",73 to 95
7,"O=C(N[C@@H]1CC(F)(F)C[C@@]2(CCN(c3cccc(F)c3)C2=O)C1)c1ccccn1 (single isomer, unassigned) [Example 98]",88 to 93
8,"O=C(N[C@H]1CC(F)(F)C[C@]2(CCN(c3cccc(F)c3)C2=O)C1)c1ccccn1 (single isomer, unassigned) [Example 99]",88 to 93
9,"O=C1c2ccccc2CN1C1CCCC2(CCN(c3cccc(Cl)c3)C2=O)C1 (single isomer, unassigned) [Example 100, cis-2-[2-(3-chloro-phenyl)-1-oxo-2-aza-spiro[4.5]dec-7-yl]-2,3-dihydro-isoindol-1-one]",47 to 93
10,"O=C(N[C@H]1CC(F)(F)C[C@@]2(CCN(c3cccc(F)c3)C2=O)C1)c1ccccn1 (single isomer, unassigned) [Example 101]",47 to 93
11,"O=C(N[C@@H]1CC(F)(F)C[C@]2(CCN(c3cccc(F)c3)C2=O)C1)c1ccccn1 (single isomer, unassigned) [Example 102]",47 to 93
12,"Cc1nccc(C(=O)N[C@H]2CC(F)(F)C[C@]3(CCN(c4cccc(F)c4)C3=O)C2)n1 (single isomer, unassigned) [Example 103]",47 to 93
13,"Cc1nccc(C(=O)N[C@@H]2CC(F)(F)C[C@@]3(CCN(c4cccc(F)c4)C3=O)C2)n1 (single isomer, unassigned) [Example 104]",47 to 93
14,"O=C(N[C@H]1CC(F)(F)C[C@]2(CCN(c3cc(F)cc(F)c3)C2=O)C1)c1ccccn1 (single isomer, unassigned) [Example 113]",47 to 93
15,"O=C(N[C@@H]1CC(F)(F)C[C@@]2(CCN(c3cc(F)cc(F)c3)C2=O)C1)c1ccccn1 (single isomer, unassigned) [Example 114]",47 to 93
16,"Cc1nccc(C(=O)N[C@@H]2C[C@@](C)(O)C[C@@]3(CCN(c4cc(F)cc(F)c4)C3=O)C2)n1 (single isomer, unassigned) [Example 118, trans-2-Methyl-pyrimidine-4-carboxylic acid [2-(3,5-difluoro-phenyl)-9-hydroxy-9-methyl-1-oxo-2-aza-spiro[4.5]dec-7-yl]-amide]",47 to 93

row,SMILES,Emax [%]
1,"Cc1nccc(C(=O)N[C@@H]2C[C@](C)(O)C[C@@]3(CCN(c4cc(F)cc(F)c4)C3=O)C2)n1 (single isomer, unassigned) [Example 119, cis-2-Methyl-pyrimidine-4-carboxylic acid [2-(3,5-difluoro-phenyl)-9-hydroxy-9-methyl-1-oxo-2-aza-spiro[4.5]dec-7-yl]-amide]",47 to 93
2,"Cc1nccc(N2CC[C@@]3(C[C@@H](NC(=O)c4cccc(F)c4)CC(F)(F)C3)C2=O)n1 (single isomer, unassigned) [Example 120]",47 to 93
3,"Cc1nccc(N2CC[C@]3(C[C@H](NC(=O)c4cccc(F)c4)CC(F)(F)C3)C2=O)n1 (single isomer, unassigned) [Example 121]",47 to 93
4,"Cc1cccc(C(=O)N[C@H]2CC(F)(F)C[C@]3(CCN(c4ccc(F)cn4)C3=O)C2)n1 (single isomer, unassigned) [Example 127]",47 to 93
5,"Cc1cccc(C(=O)N[C@@H]2CCC[C@@]3(CCN(c4ccc(F)cn4)C3=O)C2)n1 [Example 73, 6-Methyl-pyridine-2-carboxylic acid [(5R,7R)-2-(5-fluoro-pyridin-2-yl)-1-oxo-2-aza-spiro[4.5]dec-7-yl]-amide]",73 to 95
6,"Cc1cccc(C(=O)N[C@@H]2CCC[C@@]3(CCN(c4ccc(F)cc4)C3=O)C2)n1 [Example 80, 6-Methyl-pyridine-2-carboxylic acid [(5R,7R)-2-(4-fluoro-phenyl)-1-oxo-2-aza-spiro[4.5]dec-7-yl]-amide]",73 to 95
7,"Cc1cc(C(=O)N[C@@H]2CCC[C@@]3(CCN(c4cccc(F)c4)C3=O)C2)ccn1 [Example 95, N-[(5R,7R)-2-(3-Fluoro-phenyl)-1-oxo-2-aza-spiro[4.5]dec-7-yl]-2-methyl-isonicotinamide]",73 to 95
8,"CN(C)c1cccc(N2CC[C@]3(CCC[C@H](NC(=O)c4cccc(F)c4)C3)C2=O)c1 [Example 132, Cis-N-[(5S,7S)-2-(3-Dimethylamino-phenyl)-1-oxo-2-aza-spiro[4.5]dec-7-yl]-3-fluoro-benzamide]",47 to 93
9,"Cc1nccc(N2CC[C@@]3(CCC[C@@H](NC(=O)c4cccc(Cl)c4)C3)C2=O)n1 [Example 148, 3-Chloro-N-[(5R,7R)-2-(2-methyl-pyrimidin-4-yl)-1-oxo-2-aza-spiro[4.5]dec-7-yl]-benzamide]",47 to 93
10,"Cc1cccc(C(=O)N[C@@H]2CCC[C@@]3(CCN(c4ccnc(C)n4)C3=O)C2)c1 [Example 152, 3-Methyl-N-[(5R,7R)-2-(2-methyl-pyrimidin-4-yl)-1-oxo-2-aza-spiro[4.5]dec-7-yl]-benzamide]",47 to 93
11,"Cc1cccc(C(=O)N[C@@H]2CCC[C@@]3(CCN(c4ccnc(C(F)(F)F)n4)C3=O)C2)n1 [Example 156, 6-Methyl-pyridine-2-carboxylic acid[(5R,7R)-1-oxo-2-(2-trifluoromethyl-pyrimidin-4-yl)-2-aza-spiro[4.5]dec-7-yl]-amide]",47 to 93
12,"CN1CCC(N2CCC3(CCCC(NC(=O)c4cccc(F)c4)C3)C2=O)CC1 (stereo not shown) [Example 157, 3-Fluoro-N-[2-(1-methyl-piperidin-4-yl)-1-oxo-2-aza-spiro[4.5]dec-7-yl]-benzamide]",47 to 93
13,"Cn1ccc(N2CCC3(CCCC(NC(=O)c4cccc(F)c4)C3)C2=O)n1 (stereo not shown) [Example 158, 3-Fluoro-N-[2-(1-methyl-1H-pyrazol-3-yl)-1-oxo-2-aza-spiro[4.5]dec-7-yl]-benzamide]",47 to 93
14,"Cc1nc(C(=O)N[C@@H]2CCC[C@@]3(CCN(c4cc(F)cc(F)c4)C3=O)C2)cc(=O)[nH]1 [Example 159, 2-Methyl-6-oxo-1,6-dihydro-pyrimidine-4-carboxylic acid [(5R,7R)-2-(3,5-difluoro-phenyl)-1-oxo-2-aza-spiro[4.5]dec-7-yl]amide]",47 to 93
15,"CC1(F)CC(NC(=O)c2ccccn2)CC2(CCN(c3cccc(F)c3)C2=O)C1 (stereo not shown) [Example 160, Pyridine-2-carboxylic acid [9-fluoro-2-(3-fluoro-phenyl)-9-methyl-1-oxo-2-aza-spiro[4.5]dec-7-yl]-amide]",47 to 93

# From patent US9359297B2, “Spirolactam derivatives and uses of same” (H. Lundbeck A/S, priority 2009, dated 2016)
